Tests used:
Type in all cases: ADME
[1] = molecular target: T1, UDP-glucuronosyltransferase 1A3 (Homo sapiens, UniProt P35503); test: Substrate of human UDP-glucuronosyltransferase UGT1A3
T1 sequence (P35503 whole entry): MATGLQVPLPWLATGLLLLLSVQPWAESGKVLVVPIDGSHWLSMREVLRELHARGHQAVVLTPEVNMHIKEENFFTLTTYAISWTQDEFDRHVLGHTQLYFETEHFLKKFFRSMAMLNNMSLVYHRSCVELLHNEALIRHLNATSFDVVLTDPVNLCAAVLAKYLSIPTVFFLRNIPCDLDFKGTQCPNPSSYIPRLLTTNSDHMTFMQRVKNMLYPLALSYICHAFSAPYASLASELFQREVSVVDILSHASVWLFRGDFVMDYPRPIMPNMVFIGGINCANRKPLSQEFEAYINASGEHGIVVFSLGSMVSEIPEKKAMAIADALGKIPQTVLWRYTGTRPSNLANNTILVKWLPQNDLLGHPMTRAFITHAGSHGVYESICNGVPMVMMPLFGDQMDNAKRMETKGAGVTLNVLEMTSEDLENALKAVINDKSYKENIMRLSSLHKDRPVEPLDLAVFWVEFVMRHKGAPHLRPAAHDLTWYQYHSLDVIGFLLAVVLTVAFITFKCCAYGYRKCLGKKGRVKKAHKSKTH

[2] = molecular target: T2, UDP-glucuronosyltransferase 1A6 (Homo sapiens, UniProt P19224); test: Substrate of human UDP-glucuronosyltransferase UGT1A6
T2 sequence (P19224 whole entry): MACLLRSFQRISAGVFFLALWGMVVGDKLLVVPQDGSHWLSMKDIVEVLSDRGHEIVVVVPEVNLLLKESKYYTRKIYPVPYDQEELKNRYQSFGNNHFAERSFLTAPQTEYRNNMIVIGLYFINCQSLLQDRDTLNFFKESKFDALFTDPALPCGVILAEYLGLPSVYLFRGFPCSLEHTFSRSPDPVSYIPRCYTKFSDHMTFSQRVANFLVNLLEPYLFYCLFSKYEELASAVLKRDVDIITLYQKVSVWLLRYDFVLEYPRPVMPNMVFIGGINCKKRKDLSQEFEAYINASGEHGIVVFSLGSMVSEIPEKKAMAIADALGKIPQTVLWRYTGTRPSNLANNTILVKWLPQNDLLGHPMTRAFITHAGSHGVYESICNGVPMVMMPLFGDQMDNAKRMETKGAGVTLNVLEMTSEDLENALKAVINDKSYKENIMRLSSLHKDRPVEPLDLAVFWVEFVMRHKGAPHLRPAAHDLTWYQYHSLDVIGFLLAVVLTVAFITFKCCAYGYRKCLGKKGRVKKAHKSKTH

[3] = molecular target: T3, UDP-glucuronosyltransferase 2B7 (Homo sapiens, UniProt P16662); test: Substrate of human UDP-glucuronosyltransferase UGT2B7
T3 sequence (P16662 whole entry): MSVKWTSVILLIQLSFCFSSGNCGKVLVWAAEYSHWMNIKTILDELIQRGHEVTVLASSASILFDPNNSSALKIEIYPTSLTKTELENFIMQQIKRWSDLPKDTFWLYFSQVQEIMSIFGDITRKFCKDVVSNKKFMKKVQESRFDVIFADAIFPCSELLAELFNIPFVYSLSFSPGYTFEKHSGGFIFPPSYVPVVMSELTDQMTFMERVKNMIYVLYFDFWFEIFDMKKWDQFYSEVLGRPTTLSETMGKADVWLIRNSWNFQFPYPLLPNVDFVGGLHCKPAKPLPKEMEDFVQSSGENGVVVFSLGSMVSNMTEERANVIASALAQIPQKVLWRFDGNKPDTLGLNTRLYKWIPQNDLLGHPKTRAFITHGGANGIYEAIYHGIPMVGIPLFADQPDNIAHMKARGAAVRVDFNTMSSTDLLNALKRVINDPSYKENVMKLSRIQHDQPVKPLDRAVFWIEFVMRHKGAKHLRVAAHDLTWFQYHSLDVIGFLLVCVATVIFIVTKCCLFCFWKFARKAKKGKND

[4] = molecular target: T4, UDP-glucuronosyltransferase 1A9 (Homo sapiens, UniProt O60656); test: Substrate of human UDP-glucuronosyltransferase UGT1A9
T4 sequence (O60656 whole entry): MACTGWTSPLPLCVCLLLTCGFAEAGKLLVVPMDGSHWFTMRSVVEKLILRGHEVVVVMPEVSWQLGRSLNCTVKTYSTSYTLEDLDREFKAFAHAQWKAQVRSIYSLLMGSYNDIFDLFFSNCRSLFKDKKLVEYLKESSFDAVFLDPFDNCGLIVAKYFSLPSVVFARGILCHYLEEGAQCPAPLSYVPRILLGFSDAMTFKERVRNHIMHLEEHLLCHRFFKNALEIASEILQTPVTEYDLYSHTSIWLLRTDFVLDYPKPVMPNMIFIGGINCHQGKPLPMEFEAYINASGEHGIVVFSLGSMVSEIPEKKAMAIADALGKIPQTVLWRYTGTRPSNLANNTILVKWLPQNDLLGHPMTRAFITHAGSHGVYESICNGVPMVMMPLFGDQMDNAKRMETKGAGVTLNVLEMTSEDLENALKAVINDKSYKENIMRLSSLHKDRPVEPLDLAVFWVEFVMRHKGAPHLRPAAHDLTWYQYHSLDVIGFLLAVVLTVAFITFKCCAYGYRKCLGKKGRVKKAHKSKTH

[5] = molecular target: T5, UDP-glucuronosyltransferase 2B17 (Homo sapiens, UniProt O75795); test: Substrate of human UDP-glucuronosyltransferase UGT2B17
T5 sequence (O75795 whole entry): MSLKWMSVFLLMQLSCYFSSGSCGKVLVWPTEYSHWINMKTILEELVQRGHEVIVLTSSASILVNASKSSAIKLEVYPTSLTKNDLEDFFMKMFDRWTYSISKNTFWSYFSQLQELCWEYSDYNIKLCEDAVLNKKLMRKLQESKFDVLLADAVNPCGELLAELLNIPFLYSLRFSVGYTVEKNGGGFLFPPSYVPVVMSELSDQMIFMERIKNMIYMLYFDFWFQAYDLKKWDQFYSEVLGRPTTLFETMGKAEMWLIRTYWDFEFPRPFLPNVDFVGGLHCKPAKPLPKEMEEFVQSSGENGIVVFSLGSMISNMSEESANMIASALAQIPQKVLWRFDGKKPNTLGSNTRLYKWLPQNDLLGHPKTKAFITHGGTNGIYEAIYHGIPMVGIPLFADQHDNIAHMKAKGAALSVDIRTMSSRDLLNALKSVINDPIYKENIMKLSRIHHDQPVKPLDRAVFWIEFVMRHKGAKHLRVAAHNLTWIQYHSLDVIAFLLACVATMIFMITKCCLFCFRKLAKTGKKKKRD

[6] = molecular target: UDP-glucuronosyltransferase 2A1 (Homo sapiens, UniProt P0DTE4); test: Substrate of human UDP-glucuronosyltransferase UGT2A1
Sequence of UDP-glucuronosyltransferase 2A1 (P0DTE4 whole entry): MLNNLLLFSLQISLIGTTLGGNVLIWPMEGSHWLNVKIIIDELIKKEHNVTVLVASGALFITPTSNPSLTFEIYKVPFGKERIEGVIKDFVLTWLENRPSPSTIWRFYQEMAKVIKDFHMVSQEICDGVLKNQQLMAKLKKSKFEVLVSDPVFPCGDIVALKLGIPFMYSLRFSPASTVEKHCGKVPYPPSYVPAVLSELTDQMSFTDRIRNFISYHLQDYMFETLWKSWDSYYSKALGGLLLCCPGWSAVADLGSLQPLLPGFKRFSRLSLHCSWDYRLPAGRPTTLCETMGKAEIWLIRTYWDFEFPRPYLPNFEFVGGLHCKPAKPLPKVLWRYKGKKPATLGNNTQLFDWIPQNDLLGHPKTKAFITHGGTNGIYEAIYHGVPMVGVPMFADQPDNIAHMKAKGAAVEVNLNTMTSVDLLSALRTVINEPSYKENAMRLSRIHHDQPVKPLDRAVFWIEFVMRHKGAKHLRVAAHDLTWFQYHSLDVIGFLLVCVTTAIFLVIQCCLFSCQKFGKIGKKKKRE

[7] = molecular target: T6, Glutathione S-transferase kappa 1 (Homo sapiens, UniProt Q9Y2Q3); test: Substrates for human mitochondrial glutathione transferase GSTK1
T6 sequence (Q9Y2Q3 whole entry): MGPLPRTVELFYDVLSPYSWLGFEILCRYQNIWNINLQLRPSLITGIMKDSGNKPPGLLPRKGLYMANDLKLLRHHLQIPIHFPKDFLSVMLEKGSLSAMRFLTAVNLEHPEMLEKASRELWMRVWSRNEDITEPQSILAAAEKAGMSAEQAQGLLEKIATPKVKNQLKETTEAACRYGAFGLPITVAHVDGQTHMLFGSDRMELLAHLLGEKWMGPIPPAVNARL

[8] = molecular target: T7, Microsomal glutathione S-transferase 1 (Homo sapiens, UniProt P10620); test: Substrates for human microsomal glutathione transferase MGST1
T7 sequence (P10620 whole entry): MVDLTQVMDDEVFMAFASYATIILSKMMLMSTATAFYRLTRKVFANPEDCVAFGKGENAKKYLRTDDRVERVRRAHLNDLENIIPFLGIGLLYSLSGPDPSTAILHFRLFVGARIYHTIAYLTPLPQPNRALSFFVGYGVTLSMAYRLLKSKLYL

[9] = molecular target: Glutathione S-transferase 3, mitochondrial (Homo sapiens, UniProt O14880); test: Substrates for human microsomal glutathione transferase MGST3
Sequence of Glutathione S-transferase 3, mitochondrial (O14880 whole entry): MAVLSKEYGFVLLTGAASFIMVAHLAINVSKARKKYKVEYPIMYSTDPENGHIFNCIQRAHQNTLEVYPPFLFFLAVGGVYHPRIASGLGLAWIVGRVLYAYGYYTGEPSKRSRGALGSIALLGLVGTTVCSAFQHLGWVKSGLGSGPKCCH

[10] = molecular target: Microsomal glutathione S-transferase 2 (Homo sapiens, UniProt Q99735); test: Substrates for human microsomal glutathione transferase MGST2
Sequence of Microsomal glutathione S-transferase 2 (Q99735 whole entry): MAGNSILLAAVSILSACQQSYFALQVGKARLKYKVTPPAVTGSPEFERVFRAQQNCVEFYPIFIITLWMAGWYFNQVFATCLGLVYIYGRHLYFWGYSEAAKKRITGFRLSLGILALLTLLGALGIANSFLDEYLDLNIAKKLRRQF

[11] = molecular target: Glutathione S-transferase Mu 4 (Homo sapiens, UniProt Q03013); test: Substrates for human cytosolic glutathione transferase GSTM4
Sequence of Glutathione S-transferase Mu 4 (Q03013 whole entry): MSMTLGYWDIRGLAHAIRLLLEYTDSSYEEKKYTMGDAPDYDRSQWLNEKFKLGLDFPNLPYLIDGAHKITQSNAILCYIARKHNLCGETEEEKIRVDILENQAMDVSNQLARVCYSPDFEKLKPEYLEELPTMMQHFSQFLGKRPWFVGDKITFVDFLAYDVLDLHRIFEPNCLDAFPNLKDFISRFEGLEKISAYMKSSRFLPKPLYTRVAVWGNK

[12] = molecular target: Glutathione S-transferase Mu 5 (Homo sapiens, UniProt P46439); test: Substrates for human cytosolic glutathione transferase GSTM5
Sequence of Glutathione S-transferase Mu 5 (P46439 whole entry): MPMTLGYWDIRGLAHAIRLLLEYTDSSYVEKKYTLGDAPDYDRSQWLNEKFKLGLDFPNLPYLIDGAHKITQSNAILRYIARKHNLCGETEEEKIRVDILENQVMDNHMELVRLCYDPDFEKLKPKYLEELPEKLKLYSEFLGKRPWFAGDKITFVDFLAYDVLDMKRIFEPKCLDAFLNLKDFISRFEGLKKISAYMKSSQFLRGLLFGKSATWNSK

[13] = molecular target: T8, UDP-glucuronosyltransferase 1A8 (Homo sapiens, UniProt Q9HAW9); test: Substrate of human UDP-glucuronosyltransferase UGT1A8
T8 sequence (Q9HAW9 whole entry): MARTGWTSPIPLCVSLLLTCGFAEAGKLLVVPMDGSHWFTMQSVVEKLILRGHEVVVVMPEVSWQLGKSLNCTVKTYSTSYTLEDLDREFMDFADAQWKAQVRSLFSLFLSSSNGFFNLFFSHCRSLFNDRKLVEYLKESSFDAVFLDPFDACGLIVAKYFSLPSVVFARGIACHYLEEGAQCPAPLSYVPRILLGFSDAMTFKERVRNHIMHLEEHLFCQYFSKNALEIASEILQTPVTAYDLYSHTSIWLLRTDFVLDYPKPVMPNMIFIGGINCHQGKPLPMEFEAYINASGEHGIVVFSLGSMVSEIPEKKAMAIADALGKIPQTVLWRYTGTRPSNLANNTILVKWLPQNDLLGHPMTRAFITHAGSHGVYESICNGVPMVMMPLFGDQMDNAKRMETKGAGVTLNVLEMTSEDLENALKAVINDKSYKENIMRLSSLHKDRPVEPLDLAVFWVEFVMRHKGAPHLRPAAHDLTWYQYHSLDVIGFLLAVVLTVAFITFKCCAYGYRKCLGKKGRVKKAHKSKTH

[14] = molecular target: Leukotriene C4 synthase (Homo sapiens, UniProt Q16873); test: Substrates for human microsomal glutathione transferase LTC4S
Sequence of Leukotriene C4 synthase (Q16873 whole entry): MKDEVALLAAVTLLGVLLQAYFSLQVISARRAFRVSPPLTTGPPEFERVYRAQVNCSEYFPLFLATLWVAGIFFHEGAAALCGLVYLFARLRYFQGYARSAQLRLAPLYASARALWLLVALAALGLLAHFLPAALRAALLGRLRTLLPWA

[15] = molecular target: Glutathione S-transferase omega-1 (Homo sapiens, UniProt P78417); test: Substrates for human cytosolic glutathione transferase GSTO1
Sequence of Glutathione S-transferase omega-1 (P78417 whole entry): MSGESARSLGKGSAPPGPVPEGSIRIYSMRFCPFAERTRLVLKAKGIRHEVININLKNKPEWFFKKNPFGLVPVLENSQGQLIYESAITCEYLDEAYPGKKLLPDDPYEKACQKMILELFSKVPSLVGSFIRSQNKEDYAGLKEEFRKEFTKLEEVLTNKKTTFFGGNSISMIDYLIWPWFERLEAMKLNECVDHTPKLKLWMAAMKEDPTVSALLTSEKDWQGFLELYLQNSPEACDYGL

[16] = molecular target: Glutathione S-transferase omega-2 (Homo sapiens, UniProt Q9H4Y5); test: Substrates for human cytosolic glutathione transferase GSTO2
Sequence of Glutathione S-transferase omega-2 (Q9H4Y5 whole entry): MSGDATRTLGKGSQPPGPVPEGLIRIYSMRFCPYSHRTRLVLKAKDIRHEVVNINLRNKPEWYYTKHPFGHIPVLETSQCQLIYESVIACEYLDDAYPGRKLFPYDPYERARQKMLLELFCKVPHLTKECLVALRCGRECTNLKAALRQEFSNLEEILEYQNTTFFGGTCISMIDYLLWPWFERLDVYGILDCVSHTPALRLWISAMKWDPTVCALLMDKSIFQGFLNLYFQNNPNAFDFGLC

[17] = molecular target: T9, Sulfotransferase 2A1 (Homo sapiens, UniProt Q06520); test: Major substrate of human cytosolic sulfotransferase SULT2A1
T9 sequence (Q06520 whole entry): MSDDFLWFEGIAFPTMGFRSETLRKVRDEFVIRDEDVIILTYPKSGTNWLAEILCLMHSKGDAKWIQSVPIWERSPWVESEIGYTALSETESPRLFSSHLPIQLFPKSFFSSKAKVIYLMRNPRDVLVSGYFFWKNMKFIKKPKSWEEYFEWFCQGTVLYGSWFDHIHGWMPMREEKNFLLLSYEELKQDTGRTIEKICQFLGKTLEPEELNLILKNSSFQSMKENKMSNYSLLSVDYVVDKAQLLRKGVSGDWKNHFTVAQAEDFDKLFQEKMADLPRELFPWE

[18] = molecular target: Sulfotransferase 1A1 (Homo sapiens, UniProt P50225); test: Major substrate of human cytosolic sulfotransferase SULT1A1
Sequence of Sulfotransferase 1A1 (P50225 whole entry): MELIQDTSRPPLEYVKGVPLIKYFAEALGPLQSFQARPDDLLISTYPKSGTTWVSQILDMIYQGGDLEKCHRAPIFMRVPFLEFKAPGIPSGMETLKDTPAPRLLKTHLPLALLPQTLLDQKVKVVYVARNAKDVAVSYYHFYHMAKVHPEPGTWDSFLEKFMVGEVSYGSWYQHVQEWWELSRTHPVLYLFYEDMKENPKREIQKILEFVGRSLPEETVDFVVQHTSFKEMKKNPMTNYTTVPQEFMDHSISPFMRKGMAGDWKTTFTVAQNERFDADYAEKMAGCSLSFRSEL

[19] = molecular target: UDP-glucuronosyltransferase 2B28 (Homo sapiens, UniProt Q9BY64); test: Substrate of human UDP-glucuronosyltransferase UGT2B28
Sequence of UDP-glucuronosyltransferase 2B28 (Q9BY64 whole entry): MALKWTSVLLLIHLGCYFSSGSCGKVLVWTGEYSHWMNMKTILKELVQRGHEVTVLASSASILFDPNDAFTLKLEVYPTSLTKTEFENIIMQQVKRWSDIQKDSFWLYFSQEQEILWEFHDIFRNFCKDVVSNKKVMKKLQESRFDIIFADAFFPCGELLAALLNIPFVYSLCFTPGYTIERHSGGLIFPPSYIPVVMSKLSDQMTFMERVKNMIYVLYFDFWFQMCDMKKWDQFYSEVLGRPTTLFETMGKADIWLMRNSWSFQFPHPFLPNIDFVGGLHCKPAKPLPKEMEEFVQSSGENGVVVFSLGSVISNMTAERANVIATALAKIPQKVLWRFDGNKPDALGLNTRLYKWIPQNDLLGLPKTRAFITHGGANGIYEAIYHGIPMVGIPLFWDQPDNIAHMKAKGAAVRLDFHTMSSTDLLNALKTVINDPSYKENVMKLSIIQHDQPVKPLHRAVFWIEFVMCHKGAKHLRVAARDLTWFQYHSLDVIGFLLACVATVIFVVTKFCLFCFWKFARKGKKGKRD

[20] = molecular target: T10, Sulfotransferase 1E1 (Homo sapiens, UniProt P49888); test: Major substrate of human cytosolic sulfotransferase SULT1E1
T10 sequence (P49888 whole entry): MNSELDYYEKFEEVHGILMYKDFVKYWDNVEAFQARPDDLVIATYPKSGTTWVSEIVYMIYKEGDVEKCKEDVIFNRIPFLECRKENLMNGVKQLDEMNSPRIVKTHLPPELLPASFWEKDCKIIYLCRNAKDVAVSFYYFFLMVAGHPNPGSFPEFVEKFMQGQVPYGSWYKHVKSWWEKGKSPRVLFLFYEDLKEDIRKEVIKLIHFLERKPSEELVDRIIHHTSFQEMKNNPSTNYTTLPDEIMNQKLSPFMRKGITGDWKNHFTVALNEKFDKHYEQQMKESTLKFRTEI

Measured: Activity

CC(C)Cc1ccc(C(C)C(=O)O)cc1 (stereo not drawn) [IBUPROFEN]
Substrate: [1] | [2] | [3] | [4] | [5] | [6]

O=[N+]([O-])c1ccc(Cl)c([N+](=O)[O-])c1 [DINITROCHLOROBENZENE]
Substrate: [7] | [8] | [9] | [10] | [11] | [12]

CCCC(CCC)C(=O)O [VALPROIC ACID]
Substrate: [13] | [1] | [3] | [6]

CCCCC/C=C\C\C=C/C=C/C=C/[C@@H]1O[C@H]1CCCC(=O)O [LEUKOTRIENE A4]
Substrate: [14] | [9] | [10]

O=C1OC(C(O)CO)C(=O)C1=O (stereo not drawn) [DEHYDROASCORBIC ACID]
Substrate: [15] | [16]

C[C@]12CC[C@@H]3c4ccc(O)cc4CC[C@H]3[C@@H]1CC[C@@H]2O [ESTRADIOL]
Substrate: [1] | [17] | [18] | [19] | [20]

C[C@]12CC[C@H]3[C@@H](CCC4=CC(=O)CC[C@@]43C)[C@@H]1CC[C@@H]2O [TESTOSTERONE]
Substrate: [17] | [19]

Reference: ChEMBL document CHEMBL1743201, “Casarett and Doull's Toxicology The Basic Science of Poisons, 7th edition” (2008)
